Experiments:
Experiment in all cases: relative viability (nuclei count vs DMSO), 5 days (fraction); higher = more cells survive
AZD5582 = compound: C[C@@H](C(=O)N[C@@H](C1CCCCC1)C(=O)N2CCC[C@H]2C(=O)N[C@@H]3[C@@H](CC4=CC=CC=C34)OCC#CC#CCO[C@@H]5CC6=CC=CC=C6[C@@H]5NC(=O)[C@@H]7CCCN7C(=O)[C@H](C8CCCCC8)NC(=O)[C@H](C)NC)NC [AZD5582]
Outline: (§1)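 Acceptance criteria were a control CV below 25% and at least one doubling per plate. Lung cancer cell lines in 1536-well plates got five library-drug doses (not always all listed) √10 apart by pinning and were left 5 days with no medium change. Viability divides treated-well nuclei by vehicle-well nuclei and is the median across plates. Nuclei were counted by MetaXpress from 4× Hoechst images.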

Temozolomide = compound: Cn1nnc2c(C(N)=O)ncn2c1=O [Temozolomide]
Outline: as §1

AZD5582 + Navitoclax = compound: C[C@@H](C(=O)N[C@@H](C1CCCCC1)C(=O)N2CCC[C@H]2C(=O)N[C@@H]3[C@@H](CC4=CC=CC=C34)OCC#CC#CCO[C@@H]5CC6=CC=CC=C6[C@@H]5NC(=O)[C@@H]7CCCN7C(=O)[C@H](C8CCCCC8)NC(=O)[C@H](C)NC)NC [AZD5582] + CC1(C)CCC(c2ccc(Cl)cc2)=C(CN2CCN(c3ccc(C(=O)NS(=O)(=O)c4ccc(N[C@H](CCN5CCOCC5)CSc5ccccc5)c(S(=O)(=O)C(F)(F)F)c4)cc3)CC2)C1 [Navitoclax] (partner 0.5 µM)
Outline: (§2)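 For relative viability, nuclei counts in treated wells were divided by those in vehicle wells. Lung cancer cell lines had been pin-tool dosed in 1536-well plates the day after seeding and cultured for 5 days, then fixed and stained in one step (final 0.05% Triton X-100, 1% formaldehyde, 1 ug/ml Hoechst) and imaged at 4×. Doses were one drug alone or a fixed anchor-drug dose plus five library-drug doses (not always all listed) in √10 steps, and values are duplicate-plate medians.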

AZD5582 + Foretinib = compound: C[C@@H](C(=O)N[C@@H](C1CCCCC1)C(=O)N2CCC[C@H]2C(=O)N[C@@H]3[C@@H](CC4=CC=CC=C34)OCC#CC#CCO[C@@H]5CC6=CC=CC=C6[C@@H]5NC(=O)[C@@H]7CCCN7C(=O)[C@H](C8CCCCC8)NC(=O)[C@H](C)NC)NC [AZD5582] + COc1cc2c(Oc3ccc(NC(=O)C4(C(=O)Nc5ccc(F)cc5)CC4)cc3F)ccnc2cc1OCCCN1CCOCC1 [Foretinib] (partner 0.25 µM)
Outline: as §2

Cell Line	relative viability (AZD5582; 0.001581 µM)	relative viability (AZD5582; 0.005 µM)	relative viability (AZD5582; 0.01581 µM)	relative viability (AZD5582; 0.05 µM)	relative viability (Temozolomide; 0.2 µM)	relative viability (Temozolomide; 0.6325 µM)	relative viability (Temozolomide; 2 µM)	relative viability (Temozolomide; 6.325 µM)	relative viability (Temozolomide; 20 µM)	relative viability (AZD5582 + Navitoclax; first compound 0.001581 µM)	relative viability (AZD5582 + Navitoclax; first compound 0.005 µM)	relative viability (AZD5582 + Navitoclax; first compound 0.01581 µM)	relative viability (AZD5582 + Navitoclax; first compound 0.05 µM)	relative viability (AZD5582 + Foretinib; first compound 0.001581 µM)	relative viability (AZD5582 + Foretinib; first compound 0.005 µM)	relative viability (AZD5582 + Foretinib; first compound 0.01581 µM)	relative viability (AZD5582 + Foretinib; first compound 0.05 µM)
HCC-78	0.85	1.08	0.834	0.746	0.762	0.937	1.04	0.906	0.931	0.69	0.948	0.775	0.617	0.537	0.624	0.548	0.62
HCC-366	0.978	1.02	0.978	1.08	0.939	1	1.08	0.987	0.992	1.05	0.925	0.998	1.07	0.947	0.978	–	1
HCC-827	1.03	1.07	0.991	0.993	1.08	1.05	1.05	1	0.177	1.09	1.01	0.972	1.04	0.936	1.06	1.04	0.999
HOP-62	0.875	1.03	1.04	1.06	1.11	0.997	1.04	0.926	1.01	0.945	0.917	1.08	1.14	1.01	1.11	1.06	1.05
IA-LM	0.77	0.86	0.828	0.897	1.11	0.94	1	0.961	0.951	0.499	0.538	0.951	0.714	0.96	0.938	1.21	0.994
LC-2-ad	0.997	1.09	0.965	1.03	1.06	1.09	1.04	0.971	0.78	0.331	0.454	0.468	0.384	0.933	1.16	0.829	0.923
LCLC-97TM1	0.797	1.06	0.644	0.525	1.15	0.985	0.764	0.83	1.1	–	0.329	0.347	0.32	0.913	0.94	0.908	0.958
LCLC-103H	1.02	1.14	0.852	1.01	0.995	1	1.06	0.928	0.92	–	–	–	–	0.699	0.725	0.681	0.581
LK-2	0.766	1.07	0.876	1.23	0.997	1.06	0.961	0.645	0.407	0.754	0.895	0.803	1.21	0.88	1.12	1.49	1.25

Source: the supplement of paper PMC10307832
